According to PubChem BioAssay AID2060910 (Molecular Pharmacology Branch, DTP, NCI, 2025):
Values belong to the molecule of their own block, whether it stands above or below them.

System: 242566-281-R-J2-PDC complex spheroid viability
Experiment: Anticancer human tumor 242566-281-R-J2-PDC patient-derived pancreatic carcinoma cell line growth inhibition [RAS]
Conditions: for IC50: curve of first compound; for viability, T/C: stronger effect = lower value
Description: RAS pathway inhibitors in Combinations in Complex Spheroids
A high-throughput screen of multi-cell type tumor spheroids was designed to identify active combinations of RAS pathway inhibitors and targeted small molecules. Complex spheroids include a stromal component modeled by human endothelial cells (HUVEC) and fibroblasts modeled by human mesenchymal stem cells (MSCs). The concentration ranges selected for each drug and investigational agent were based upon clinically achievable concentrations if the clinical Cmax of the agent was known.
Compounds. The drugs and investigational agents: abemaciclib (NSC768073), cobimetinib (NSC768068), divarasib (GDC6063, NSC841802), docetaxel (NSC628503), GDC-1971 (RLY-1971, NSC841576), gemcitabine (NSC613327), inavolisib (NSC800729), ipatasertib (NSC767898), KB-0742 (NSC834161), MRTX-1133 (NSC836407), osimertinib (NSC779217), RMC-4630 (NSC839698), RMC-6236 (NSC851965), RMC-6291 (NSC852671), Ro-3306 (NSC812927), sapanisertib (NSC764658), SN-38 (NSC673596), staurosporine (NSC755774), SY5609 (NSC837396), and tovorafenib (DAY101, NSC766906), were obtained from the National Cancer Institute (NCI) Developmental Therapeutics Program Chemical Repository. The FDA-approved anticancer drug set is available from the NCI Developmental Therapeutics Program. […] The stock solutions were prepared in dimethyl sulfoxide (DMSO, Sigma-Aldrich, St. Louis, MO, cat. D2650) at 800-fold the tested concentration and stored at -70 degrees C prior to their use. All drugs and investigational agents were tested over a range starting from a high concentration at or near the clinical Cmax and decreasing in half-log increments. If the clinical Cmax for an agent had not been determined, the highest concentration tested was 10 microM.
Cell Culture. All cells were maintained in an incubator at 37 degrees C and 5% CO2 with 95% humidity. The PDC lines were cultured according to standard operating procedures established by the NCI PDMR. All PDCs were thawed and cultured in Matrigel-coated flasks prepared with a working solution of 1X Ham's F-12 nutrient mix, without supplementation (Invitrogen, Waltham, MA, cat. 11765054), 100 U/mL penicillin-streptomycin (Invitrogen, cat. 15140122), and 2.5% Matrigel (Corning Inc., Corning, NY, cat. 354248) for the first three passages. The 362531-283-R-J2-PDC and 782815-120-R-J1-PDC lines were cultured in 6C/Colon 1B media, which includes advanced DMEM/F-12 (Thermo Fisher Scientific, cat. 12634028), 10 mM HEPES (Thermo Fisher Scientific, cat. 15630080), 1X GlutaMAX supplement (Thermo Fisher Scientific, cat. 35050061), 0.1 mg/mL primocin (InvivoGen, San Diego, CA, cat. ant-pm-2), 10% defined fetal bovine serum, heat inactivated (HyClone Laboratories Inc., Logan, UT, cat. SH30070.03HI), 50% L-WRN conditioned media (ATCC, cat. CRL-3276), 1.25 mM N-Acetyl-L-cysteine (Sigma-Aldrich, cat. A9165), 10 mM nicotinamide (Sigma-Aldrich, cat. N0636), 1X B-27 supplement (Thermo Fisher Scientific, cat. 17504044), 1X N-2 supplement (Thermo Fisher Scientific, cat. 17502048), 50 ng/mL human EGF (Thermo Fisher Scientific, cat. PHG0311), and 10 microM Y-27632 dihydrochloride (Tocris Bioscience, cat. 1254). The K12877-001-R-J1-PDC line was cultured in 6I media, which includes all 6C/Colon 1B media plus 10 ng/mL human FGF-10 (PeproTech, cat. 100-26), 1 ng/mL human FGF-2 (PeproTech, cat. 100-18B), 1 µM prostaglandin E2 (Tocris Bioscience, cat. 2296), […] hydrocortisone (Sigma-Aldrich, cat. H4001), and […] bovine insulin (Sigma-Aldrich, cat. I6634). The K86415-001-R-J1-PDC line was cultured in 6D media, which includes all 6C/Colon 1B media components minus the L-WRN conditioned media. The 485176-168-R4-J1-PDC was cultured in PANC media, which includes all 6C/Colon 1B media plus 100 ng/mL human FGF-10 (PeproTech, cat. 100-26), 500 nM SB-431542 (Selleckchem, cat. S1067), and 10 nM gastrin (Tocris Bioscience, cat. 3006). […]
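Further: spheroids exposed to compound for 7 days before readout.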
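Wherever viability, T/C is given: 100% = DMSO vehicle control wells.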

IC50 (second compound 0.00316 µM): > 10000 nM
IC50 (second compound 0.01 µM): > 10000 nM
IC50 (second compound 0.0316 µM): > 10000 nM
IC50 (second compound 0.1 µM): > 10000 nM
IC50 (second compound 0.316 µM): > 10000 nM
IC50 (second compound 1 µM): > 10000 nM
Compound: Cc1nc(N2CCC3(CC2)COC(C)C3N)c(CO)nc1Sc1ccnc(N)c1Cl (centres undefined) + C=CC(=O)N1CCN(c2nc(OCC3CCCN3C)nc3c(F)c(-c4nc(N)cc(C)c4C(F)(F)F)c(Cl)cc23)C(C)C1
viability, T/C (second compound 0.00316 µM, first compound 0.0316 µM): 115%
viability, T/C (second compound 0.00316 µM, first compound 0.1 µM): 136%
viability, T/C (second compound 0.00316 µM, first compound 0.316 µM): 102%
viability, T/C (second compound 0.00316 µM, first compound 1 µM): 80.1%
viability, T/C (second compound 0.00316 µM, first compound 3.16 µM): 104%
viability, T/C (second compound 0.00316 µM, first compound 10 µM): 105%
viability, T/C (second compound 0.01 µM, first compound 0.0316 µM): 129%
viability, T/C (second compound 0.01 µM, first compound 0.1 µM): 120%
viability, T/C (second compound 0.01 µM, first compound 0.316 µM): 89.3%
viability, T/C (second compound 0.01 µM, first compound 1 µM): 70.8%
viability, T/C (second compound 0.01 µM, first compound 3.16 µM): 94%
viability, T/C (second compound 0.01 µM, first compound 10 µM): 116%
viability, T/C (second compound 0.0316 µM, first compound 0.0316 µM): 118%
viability, T/C (second compound 0.0316 µM, first compound 0.1 µM): 124%
viability, T/C (second compound 0.0316 µM, first compound 0.316 µM): 99.1%
viability, T/C (second compound 0.0316 µM, first compound 1 µM): 77.4%
viability, T/C (second compound 0.0316 µM, first compound 3.16 µM): 100%
viability, T/C (second compound 0.0316 µM, first compound 10 µM): 120%
viability, T/C (second compound 0.1 µM, first compound 0.0316 µM): 157%
viability, T/C (second compound 0.1 µM, first compound 0.1 µM): 119%
viability, T/C (second compound 0.1 µM, first compound 0.316 µM): 89.4%
viability, T/C (second compound 0.1 µM, first compound 1 µM): 84.6%
viability, T/C (second compound 0.1 µM, first compound 3.16 µM): 83.1%
viability, T/C (second compound 0.1 µM, first compound 10 µM): 113%
viability, T/C (second compound 0.316 µM, first compound 0.0316 µM): 132%
viability, T/C (second compound 0.316 µM, first compound 0.1 µM): 151%
viability, T/C (second compound 0.316 µM, first compound 0.316 µM): 96%
viability, T/C (second compound 0.316 µM, first compound 1 µM): 85%
viability, T/C (second compound 0.316 µM, first compound 3.16 µM): 102%
viability, T/C (second compound 0.316 µM, first compound 10 µM): 113%
viability, T/C (second compound 1 µM, first compound 0.0316 µM): 141%
viability, T/C (second compound 1 µM, first compound 0.1 µM): 130%
viability, T/C (second compound 1 µM, first compound 0.316 µM): 93.2%
viability, T/C (second compound 1 µM, first compound 1 µM): 85.7%
viability, T/C (second compound 1 µM, first compound 3.16 µM): 112%
viability, T/C (second compound 1 µM, first compound 10 µM): 113%

IC50 (second compound 0.000949 µM): 2620 nM
IC50 (second compound 0.003 µM): 2040 nM
IC50 (second compound 0.00949 µM): < 31.6 nM
IC50 (second compound 0.03 µM): < 31.6 nM
IC50 (second compound 0.0949 µM): < 31.6 nM
IC50 (second compound 0.3 µM): < 31.6 nM
Compound: CCC(CC)c1cc(NC2CCC(N)C2)n2nccc2n1 (centres undefined) + CCn1c(-c2cc(N3CCN(C)CC3)cnc2C(C)OC)c2c3cc(ccc31)-c1csc(n1)CC(NC(=O)C1CC1C)C(=O)N1CCCC(N1)C(=O)OCC(C)(C)C2
viability, T/C (second compound 0.000949 µM, first compound 0.0316 µM): 90.9%
viability, T/C (second compound 0.000949 µM, first compound 0.1 µM): 88.3%
viability, T/C (second compound 0.000949 µM, first compound 0.316 µM): 77.8%
viability, T/C (second compound 0.000949 µM, first compound 1 µM): 90.1%
viability, T/C (second compound 0.000949 µM, first compound 3.16 µM): 42.9%
viability, T/C (second compound 0.000949 µM, first compound 10 µM): 1.28%
viability, T/C (second compound 0.003 µM, first compound 0.0316 µM): 80.1%
viability, T/C (second compound 0.003 µM, first compound 0.1 µM): 74.2%
viability, T/C (second compound 0.003 µM, first compound 0.316 µM): 65.4%
viability, T/C (second compound 0.003 µM, first compound 1 µM): 74.9%
viability, T/C (second compound 0.003 µM, first compound 3.16 µM): 35.5%
viability, T/C (second compound 0.003 µM, first compound 10 µM): 1.04%
viability, T/C (second compound 0.00949 µM, first compound 0.0316 µM): 50.9%
viability, T/C (second compound 0.00949 µM, first compound 0.1 µM): 39.1%
viability, T/C (second compound 0.00949 µM, first compound 0.316 µM): 45.9%
viability, T/C (second compound 0.00949 µM, first compound 1 µM): 45.8%
viability, T/C (second compound 0.00949 µM, first compound 3.16 µM): 18.8%
viability, T/C (second compound 0.00949 µM, first compound 10 µM): 1.43%
viability, T/C (second compound 0.03 µM, first compound 0.0316 µM): 32.2%
viability, T/C (second compound 0.03 µM, first compound 0.1 µM): 29.8%
viability, T/C (second compound 0.03 µM, first compound 0.316 µM): 27.9%
viability, T/C (second compound 0.03 µM, first compound 1 µM): 29.8%
viability, T/C (second compound 0.03 µM, first compound 3.16 µM): 7.89%
viability, T/C (second compound 0.03 µM, first compound 10 µM): 2.28%
viability, T/C (second compound 0.0949 µM, first compound 0.0316 µM): 22.3%
viability, T/C (second compound 0.0949 µM, first compound 0.1 µM): 21%
viability, T/C (second compound 0.0949 µM, first compound 0.316 µM): 23.2%
viability, T/C (second compound 0.0949 µM, first compound 1 µM): 24.5%
viability, T/C (second compound 0.0949 µM, first compound 3.16 µM): 8.03%
viability, T/C (second compound 0.0949 µM, first compound 10 µM): 1.49%
viability, T/C (second compound 0.3 µM, first compound 0.0316 µM): 20.7%
viability, T/C (second compound 0.3 µM, first compound 0.1 µM): 19.7%
viability, T/C (second compound 0.3 µM, first compound 0.316 µM): 20.5%
viability, T/C (second compound 0.3 µM, first compound 1 µM): 20.9%
viability, T/C (second compound 0.3 µM, first compound 3.16 µM): 6.77%
viability, T/C (second compound 0.3 µM, first compound 10 µM): 1.47%
